Patent US12116344B2, “Crystalline forms of a pharmaceutical compound” (Azafaros B.V., priority 2020, dated 2024)
“Also recorded” adds a separate entry of the source. Like-named read-outs stand apart in the source and are kept apart here.

Key:
[1] = molecular target: T1, glucosylceramide synthase (GCS) (Homo sapiens, UniProt Q16739); conditions: stated in words only, no test described; cited from earlier work
T1 sequence (Q16739 1-394): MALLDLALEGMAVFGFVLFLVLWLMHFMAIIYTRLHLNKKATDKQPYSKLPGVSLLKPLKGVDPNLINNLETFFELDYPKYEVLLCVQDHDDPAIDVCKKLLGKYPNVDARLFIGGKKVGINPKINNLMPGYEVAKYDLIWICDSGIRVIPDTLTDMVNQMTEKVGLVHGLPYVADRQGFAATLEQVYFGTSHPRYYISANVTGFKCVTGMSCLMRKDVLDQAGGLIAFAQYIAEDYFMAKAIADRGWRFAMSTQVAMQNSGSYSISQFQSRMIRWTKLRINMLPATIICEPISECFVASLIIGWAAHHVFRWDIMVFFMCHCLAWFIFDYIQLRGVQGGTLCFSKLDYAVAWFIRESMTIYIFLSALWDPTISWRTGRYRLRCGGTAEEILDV

[2] = Brain:plasma exposure after repeat oral administration PND 11-70; format: in vivo, mice; conditions: NPC1 (−/−) (Balb/c background), mouse, brain and plasma
Procedure: 24 NPC1 (−/−) mice were treated per oral gavage with AZ-3102-00 from post-natal day 11 (P11) to post-natal-day 70 (P70). Age-matched control mice included 6 NPC (−/−) and 4 NPC (+/−) mice treated with vehicle, and 4 NPC (+/+) mice received AZ-3102-00. After the last treatment on P70, NPC (−/−) mice (n=4 per timepoint) were euthanized by IP injection of 600 mg/kg pentobarbital at the following timepoints: 30 min, 1 h, 2 h, 4 h, 8 h, and 24 h. Control mice were also sacrificed after the last treatment (not time critical). Terminal blood was collected by heart puncture in EDTA coated tubes. Blood plasma was collected by centrifugation (3000×g for 10 minutes at room temperature) and 50 μL plasma aliquots were transferred to 1.5 mL tubes, frozen on dry ice and stored at −80° C.
24 NPC1 (−/−) mice (groups D to I) were treated per oral gavage (10 mL/kg) with AZ-3102-00 from post-natal day 11 (P11) to post-natal-day 70 (P70). Dosing will start at 1.5 mg/kg from P11 to P25, followed by 3 mg/kg from P26 to P70. Control mice included 6 NPC1 (−/−) and 4 NPC (+/−) mice treated with vehicle and 4 NPC (+/+) mice received AZ-3102-00 (groups A to C).
After the last treatment on P70, NPC (−/−) mice (n=4 per timepoint; groups D to I) were euthanized by IP injection of 600 mg/kg pentobarbital a the following timepoints: 30 min, 1 h, 2 h, 4 h, 8 h, and 24 h. Control mice (groups A, B and C) were also sacrificed after the last treatment (not time critical).
At 30 min (Group D), 1 h (+/−5 min. Group E), 2 h (+/−5 min. Group F), 4 h (+/−5 min. Group G), 8 h (+/−5 min. Group H), and 24 h (+/−5 min. Group 1) (all time critical) after the last treatment on P70, mice were euthanized by i.p. injection.
(§1) Plasma samples were first mixed for protein precipitation with a solution of acetonitrile containing 50 ng/mL of AZ-3101 (internal standard). After 5 minutes incubation at room temperature, the samples were centrifuged for 5 minutes (13000 rpm, 4° C.) and the supernatant was diluted 10-fold in ultrapure water with 0.1% formic acid.
as §1, with “Brain tissues” for “Plasma samples”, “homogenized in a solution of ultrapure water:methanol (1:1) with 0.1% formic acid (4 mL for each gram of tissue) using a FastPrep 24™ Microtube homogenizer (MP Biomedicals, USA). Brain homogenates were” for “first”, “10” for “50”
Diluted plasma and brain tissue supernatants were injected into an Agilent LC system (Agilent, USA) by an automated sample injector (SIL-30, Shimadzu, USA). […] Data were calibrated and quantified using the Analyst™ data system (AB Sciex, version 1.6.3). […]

[3] = Dynamic vapour sorption (DVS), hygroscopicity; format: physicochemical; conditions: listed as Form 3
Procedure: Dynamic vapour sorption (DVS) measurements were performed with an SPS11-100n “Sorptions Prüfsystem” from ProUmid (formerly “Projekt Messtechnik”), August-Nagel-Str. 23, 89079 Ulm (Germany). About 5 mg to 20 mg of sample was put into an aluminum sample pan. Humidity change rates of 5% per hour were used. The applied measurement program can be described as follows:
The sample was placed on an aluminium or platinum holder on top of a microbalance and allowed to equilibrate at a relative humidity (RH) of 50% before starting the pre-defined humidity programs: • (1) 2 h at 50% RH • (2) 50→0% RH (5%/h); 5 h at 0% RH • (3) 0→95% RH (5%/h); 5 h at 95% RH • (4) 95→0% RH (5%/h); 5 h at 0% RH • (5) 0→95% RH (5%/h); 5 h at 95% RH • (6) 95→50% RH (5%/h); 2 h at 50% RH

Kp ([2]; female, Female mice, read-out: Brain:Plasma Ratio AUC0-24): 1.37
Kp ([2]; female, Female mice, read-out: Brain:Plasma Ratio Cmax): 0.41
Kp ([2]; male, Male mice, read-out: Brain:Plasma Ratio AUC0-24): 0.95
Kp ([2]; male, Male mice, read-out: Brain:Plasma Ratio Cmax): 0.26
Structure (SMILES): OC[C@H]1[C@@H](O)[C@H](O)[C@@H](O)CN1CCCCCOCc1ccc(-c2ccccc2)c(F)c1 [AZ-3102]
Potency as inhibitor of GCS [1]: highly potent (nM)
Hygroscopicity (description) [3]: non-hygroscopic or substantially non-hygroscopic; also recorded: substantially non-hygroscopic
